Test results taken from US20230183215A1, “Notch Inhibitors and Uses Thereof” (StemSynergy Therapeutics, Inc., priority 2020, published 2023).
Counter-ions that a name gives are not always drawn.

Legend:
[1] = system: OE33 Esophageal Adenocarcinoma cell line; assay: OE33 Colony Formation Assay; format: cell-based; conditions: Homo sapiens, 200 cells/well, compound every 48 hours for 7 days, CellTiter-Glo
Procedure: OE33 Colony Formation Assay:
The OE33 Esophageal Adenocarcinoma cell line was cultured and plated into 96-well tissue culture plates under sparse conditions (200 cells/well). Test compounds were serially diluted in DMSO and then into culture media (final DMSO concentration=0.1%). Compound/media was then added to cells every 48 hours for a total of 7 days. Clonogenic growth was assessed using the CellTiter-Glo reagent, according to manufacturer (Promega) specifications. Percent inhibition was calculated as the percent of luminescence normalized to control (0.1% DMSO) wells. Nonlinear regression curve fitting was performed using GraphPad Prism software to determine EC50's.

[2] = molecular target: T1, Notch1 (Homo sapiens, UniProt P46531); assay: Notch1 Reporter Assay (CSL-responsive luciferase, doxycycline-induced Notch-ICD in 293A cells); format: cell-based; conditions: 25 ng/mL Dox, 24 h, luciferase normalized to cell viability
T1 construct: pLV[Tet]-Puro-TRE3G>Notch1-ICD; expressed in transfected cells; host or cells: 293A cells
Procedure: 293A cells expressing 1) pCMV-Tet-On 3G, 2) pLV[Tet]-Puro-TRE3G>Notch1-ICD, 3) pLV[Tet]-Puro-TRE3G>Notch2-ICD, 4) pLV[Tet]-Puro-TRE3G>Notch3-ICD, and 5) pCSL-RElement-Luc were used. When Doxycycline is added, the Tet-ON gene activates expression of hNotch1ICD, which together with endogenous NTC components binds to CSL responsive elements (pCSL-RElement-Luc) and expresses luciferase. 1×10^4 cells are plated in 100 μL (96-well format). 24 h later, compounds (10 mM stock in DMSO) are diluted in DMSO to 200×, then added (5 ul into 1 mL) to cell culture media containing 50 ng/mL Dox. This is then added 1:1 to cells. Final DMSO=0.25%, Dox=25 ng/mL. After 24 h, media is discarded, and cells are lysed in passive lysis buffer (Promega). Cells are rocked at room temperature for 15 min and then lysate is divided for luciferase assay (Luciferase Assay System, Promega) and cell viability (CellTiter Glo 2.0, Promega). Raw luciferase is normalized to cell viability, and then scaled to DMSO wells. Results are analyzed and IC50's are determined in GraphPad by nonlinear regression curve fitting (4 parameter) of dose response curves.

T1 sequence (P46531 1754-2555 limits assumed): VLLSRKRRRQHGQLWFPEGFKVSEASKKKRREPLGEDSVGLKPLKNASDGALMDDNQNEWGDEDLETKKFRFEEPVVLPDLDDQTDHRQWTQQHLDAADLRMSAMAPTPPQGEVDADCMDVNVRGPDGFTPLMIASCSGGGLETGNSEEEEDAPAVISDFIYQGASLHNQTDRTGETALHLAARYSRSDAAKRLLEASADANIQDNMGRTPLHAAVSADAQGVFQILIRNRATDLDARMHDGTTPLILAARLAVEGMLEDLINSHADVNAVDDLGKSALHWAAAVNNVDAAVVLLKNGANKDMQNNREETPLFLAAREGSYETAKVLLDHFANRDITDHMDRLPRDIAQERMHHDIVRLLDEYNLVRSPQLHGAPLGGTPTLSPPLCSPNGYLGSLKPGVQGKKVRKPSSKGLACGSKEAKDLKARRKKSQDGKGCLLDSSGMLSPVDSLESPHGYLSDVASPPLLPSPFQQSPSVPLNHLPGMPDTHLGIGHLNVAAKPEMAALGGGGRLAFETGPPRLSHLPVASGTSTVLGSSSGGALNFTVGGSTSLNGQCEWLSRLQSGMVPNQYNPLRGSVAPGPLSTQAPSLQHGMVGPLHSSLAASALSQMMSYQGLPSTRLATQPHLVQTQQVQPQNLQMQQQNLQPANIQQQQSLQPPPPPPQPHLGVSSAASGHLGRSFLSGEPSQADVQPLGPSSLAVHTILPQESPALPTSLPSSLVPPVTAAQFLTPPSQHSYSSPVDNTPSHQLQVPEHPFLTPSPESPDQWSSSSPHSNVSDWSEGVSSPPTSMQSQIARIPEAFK

With COc1cc(-c2cc(C(F)(F)F)cc3c2n(C)c(=O)n3CC(=O)Nc2ccc(F)cc2F)cc(F)c1OCc1nnc[nH]1 [SSTN-494, 2-(4-(4-((4H-1,2,4-triazol-3-yl)methoxy)-3-fluoro-5-methoxyphenyl)-3-methyl-2-oxo-6-(trifluoromethyl)-2,3-dihydro-1H-benzo[d]imidazol-1-yl)-N-(2,4-difluorophenyl)acetamide hydrochloride] the EC50 [1] was 7.1 µM and the IC50 [2] was 12.1 µM.

For COc1cc(-c2cc(C(F)(F)F)cc3c2n(C)c(=O)n3CC(=O)Nc2ccc(SC)cc2F)cc(F)c1OCc1nnc[nH]1 [SSTN-500, 2-(4-(4-((4H-1,2,4-triazol-3-yl)methoxy)-3-fluoro-5-methoxyphenyl)-3-methyl-2-oxo-6-(trifluoromethyl)-2,3-dihydro-1H-benzo[d]imidazol-1-yl)-N-(2-fluoro-4-(methylthio)phenyl)acetamide hydrochloride], the EC50 [1] was 2.7 µM and the IC50 [2] was 7.4 µM.

With COc1cc(-c2cc(Cl)cc3c2n(C)c(=O)n3CC(=O)Nc2ccc(F)cc2)cc(F)c1OCc1nnc[nH]1 [SSTN-601, 2-(4-(4-((4H-1,2,4-triazol-3-yl)methoxy)-3-fluoro-5-methoxyphenyl)-6-chloro-3-methyl-2-oxo-2,3-dihydro-1H-benzo[d]imidazol-1-yl)-N-(4-fluorophenyl)acetamide] the EC50 [1] was 7.1 µM and the IC50 [2] was 10.2 µM.

With COc1cc(-c2cc(C(F)(F)F)cc3c2n(C)c(=O)n3CC(=O)Nc2ccc(SC)cc2)cc(F)c1OCc1nnc[nH]1 [SSTN-498, 2-(4-(4-((4H-1,2,4-triazol-3-yl)methoxy)-3-fluoro-5-methoxyphenyl)-3-methyl-2-oxo-6-(trifluoromethyl)-2,3-dihydro-1H-benzo[d]imidazol-1-yl)-N-(4-(methylthio)phenyl)acetamide hydrochloride] the EC50 [1] was 3 µM and the IC50 [2] was 8.5 µM.

In the case of COc1cc(-c2cc(C(F)(F)F)cc3c2n(C)c(=O)n3CC(=O)Nc2cccc(C3CC3)c2)cc(F)c1OCc1nnc[nH]1 [SSTN-547, 2-(4-(4-((4H-1,2,4-triazol-3-yl)methoxy)-3-fluoro-5-methoxyphenyl)-3-methyl-2-oxo-6-(trifluoromethyl)-2,3-dihydro-1H-benzo[d]imidazol-1-yl)-N-(3-cyclopropylphenyl)acetamide], the EC50 [1] is reported as 1.7 µM and the IC50 [2] is reported as 5.9 µM.

With COc1cc(-c2cc(C(F)(F)F)cc3c2n(C)c(=O)n3CC(=O)Nc2ccc(F)nc2)cc(F)c1OCc1nnc[nH]1 [SSTN-609, 2-(4-(4-((4H-1,2,4-triazol-3-yl)methoxy)-3-fluoro-5-methoxyphenyl)-3-methyl-2-oxo-6-(trifluoromethyl)-2,3-dihydro-1H-benzo[d]imidazol-1-yl)-N-(6-fluoropyridin-3-yl)acetamide] the EC50 [1] was 18.8 µM and the IC50 [2] was 10.3 µM.

COC(=O)c1cc(OCc2nnc[nH]2)c(OC)cc1-c1cc(C(F)(F)F)cc2c1n(C)c(=O)n2CC(=O)Nc1ccc(F)cc1 [SSTN-604, Methyl 5-((4H-1,2,4-triazol-3-yl)methoxy)-2-(1-(2-((4-fluorophenyl)amino)-2-oxoethyl)-3-methyl-2-oxo-6-(trifluoromethyl)-2,3-dihydro-1H-benzo[d]imidazol-4-yl)-4-methoxybenzoate hydrochloride salt] showed an EC50 [1] of 18.9 µM and an IC50 [2] of 10.4 µM.

COc1cc(-c2cc(C(F)(F)F)cc3c2n(C)c(=O)n3CC(=O)Nc2ccc(Cl)cc2)cc(F)c1OCc1nnc[nH]1 [SSTN-489, 2-(4-(4-((4H-1,2,4-triazol-3-yl)methoxy)-3-fluoro-5-methoxyphenyl)-3-methyl-2-oxo-6-(trifluoromethyl)-2,3-dihydro-1H-benzo[d]imidazol-1-yl)-N-(4-chlorophenyl)acetamide hydrochloride] was tested, and the EC50 [1] was 2.1 µM and the IC50 [2] was 7.9 µM.

Compound COc1cc(-c2cc(C(F)(F)F)cc3c2n(C)c(=O)n3CC(=O)Nc2cccc(C(C)(C)C)c2)cc(F)c1OCc1nnc[nH]1 [SSTN-555, 2-(4-(4-((4H-1,2,4-triazol-3-yl)methoxy)-3-fluoro-5-methoxyphenyl)-3-methyl-2-oxo-6-(trifluoromethyl)-2,3-dihydro-1H-benzo[d]imidazol-1-yl)-N-(3-(tert-butyl)phenyl)acetamide] has an EC50 [1] of 1.7 µM and an IC50 [2] of 4.1 µM.

COc1cc(-c2cc(C(F)(F)F)cc3c2n(C)c(=O)n3CC(=O)Nc2ccc(F)cc2)cc(F)c1OCc1nnc[nH]1 [compound 465, 2-(4-(4-((4H-1,2,4-triazol-3-yl)methoxy)-3-fluoro-5-methoxyphenyl)-3-methyl-2-oxo-6-(trifluoromethyl)-2,3-dihydro-1H-benzo[d]imidazol-1-yl)-N-(4-fluorophenyl)acetamide hydrochloride] gave an EC50 [1] of 5.2 µM and an IC50 [2] of 8.6 µM.

Work on COc1cc(-c2cc(C(F)(F)F)cc3c2n(C)c(=O)n3CC(=O)N(c2ccc(F)cc2)C(C)C)cc(F)c1OCc1nnc[nH]1 [SSTN-542, 2-(4-(4-((4H-1,2,4-triazol-3-yl)methoxy)-3-fluoro-5-methoxyphenyl)-3-methyl-2-oxo-6-(trifluoromethyl)-2,3-dihydro-1H-benzo[d]imidazol-1-yl)-N-(4-fluorophenyl)-N-isopropylacetamide] yielded an EC50 [1] of 1.7 µM and an IC50 [2] of 3.8 µM.

In the case of COc1cc(-c2cc(C(F)(F)F)cc3c2n(C)c(=O)n3CC(=O)Nc2ccc(F)cc2)ccc1OCc1nnc[nH]1 [SSTN-598, 2-(4-(4-((4H-1,2,4-triazol-3-yl)methoxy)-3-methoxyphenyl)-3-methyl-2-oxo-6-(trifluoromethyl)-2,3-dihydro-1H-benzo[d]imidazol-1-yl)-N-(4-fluorophenyl)acetamide hydrochloride salt], the EC50 [1] is reported as 11.6 µM and the IC50 [2] is reported as 6.4 µM.

COc1cc(-c2cc(C(F)(F)F)cc3c2n(C)c(=O)n3CC(=O)Nc2ccccc2Cl)cc(F)c1OCc1nnc[nH]1 [SSTN-491, 2-(4-(4-((4H-1,2,4-triazol-3-yl)methoxy)-3-fluoro-5-methoxyphenyl)-3-methyl-2-oxo-6-(trifluoromethyl)-2,3-dihydro-1H-benzo[d]imidazol-1-yl)-N-(2-chlorophenyl)acetamide hydrochloride] showed an EC50 [1] of 4.6 µM and an IC50 [2] of 11.1 µM.

COc1cc(-c2cc(C(F)(F)F)cc3c2n(C)c(=O)n3CC(=O)N(C)c2ccc(F)cc2)cc(F)c1OCc1nnc[nH]1 [compound 440, 2-(4-(4-((4H-1,2,4-triazol-3-yl)methoxy)-3-fluoro-5-methoxyphenyl)-3-methyl-2-oxo-6-(trifluoromethyl)-2,3-dihydro-1H-benzo[d]imidazol-1-yl)-N-(4-fluorophenyl)-N-methylacetamide hydrochloride] was tested, and the EC50 [1] was 4.6 µM and the IC50 [2] was 3.1 µM.

In the case of COc1cc(-c2cc(C(F)(F)F)cc3c2n(C)c(=O)n3CC(=O)Nc2cccc(N3CCOCC3)c2)cc(F)c1OCc1nnc[nH]1 [SSTN-558, 2-(4-(4-((4H-1,2,4-triazol-3-yl)methoxy)-3-fluoro-5-methoxyphenyl)-3-methyl-2-oxo-6-(trifluoromethyl)-2,3-dihydro-1H-benzo[d]imidazol-1-yl)-N-(3-morpholinophenyl)acetamide], the EC50 [1] is reported as 4.7 µM and the IC50 [2] is reported as 9.4 µM.

COc1cc(-c2cc(C(F)(F)F)cc3c2n(C)c(=O)n3CC(=O)N(C)c2ccc(C(F)(F)F)cc2)cc(F)c1OCc1nnc[nH]1 [compound 439, 2-(4-(4-((4H-1,2,4-triazol-3-yl)methoxy)-3-fluoro-5-methoxyphenyl)-3-methyl-2-oxo-6-(trifluoromethyl)-2,3-dihydro-1H-benzo[d]imidazol-1-yl)-N-methyl-N-(4-(trifluoromethyl)phenyl)acetamide hydrochloride] showed an EC50 [1] of 1.2 µM and an IC50 [2] of 3.5 µM.
